Reference: ChEMBL document CHEMBL3301562, “MMV Box screening against Plasmodium falciparum protein kinases and aminoacyl tRNA synthetases”
pIC50: −log10 of the molar value.

What was measured:
Type in all cases: functional
[1] = molecular target: T1, Putative uncharacterized protein pk7 (Plasmodium falciparum, UniProt O96214); assay: Final concentrations were 1 uM ATP, 2 mM DTT, 20 mM MgCl2, 2 mM MnCl2, 0.01% BSA, and 6 ug/ml PK7, in a buffer of 20 mM Tris-HCl (pH 7.5). The enzyme itself was the only substrate present (since autophosphorylation occurs); 100 uM 1NA-PP1 was used as a control inhibitor. Incubation time was 3 hours.
T1 sequence (O96214 whole entry): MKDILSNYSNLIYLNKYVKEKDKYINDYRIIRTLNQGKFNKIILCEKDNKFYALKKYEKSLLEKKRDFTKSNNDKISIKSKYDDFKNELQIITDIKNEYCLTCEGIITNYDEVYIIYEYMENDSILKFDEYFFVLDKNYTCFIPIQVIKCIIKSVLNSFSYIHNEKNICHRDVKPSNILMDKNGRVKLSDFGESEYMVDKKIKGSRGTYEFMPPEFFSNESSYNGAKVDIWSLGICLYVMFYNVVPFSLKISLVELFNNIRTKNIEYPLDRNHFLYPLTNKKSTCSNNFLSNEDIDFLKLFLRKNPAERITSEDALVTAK

[2] = molecular target: T2, Calcium-dependent protein kinase 4 (Plasmodium falciparum (isolate 3D7), UniProt Q8IBS5); assay: MMV: CDPK4 Protein kinase inhibition assay using recombinant PfCDPK4, syntide2 peptide substrate, ATP and KinaseGlo to measure % inhibition at 1 uM MMV box compound.
T2 sequence (Q8IBS5 whole entry): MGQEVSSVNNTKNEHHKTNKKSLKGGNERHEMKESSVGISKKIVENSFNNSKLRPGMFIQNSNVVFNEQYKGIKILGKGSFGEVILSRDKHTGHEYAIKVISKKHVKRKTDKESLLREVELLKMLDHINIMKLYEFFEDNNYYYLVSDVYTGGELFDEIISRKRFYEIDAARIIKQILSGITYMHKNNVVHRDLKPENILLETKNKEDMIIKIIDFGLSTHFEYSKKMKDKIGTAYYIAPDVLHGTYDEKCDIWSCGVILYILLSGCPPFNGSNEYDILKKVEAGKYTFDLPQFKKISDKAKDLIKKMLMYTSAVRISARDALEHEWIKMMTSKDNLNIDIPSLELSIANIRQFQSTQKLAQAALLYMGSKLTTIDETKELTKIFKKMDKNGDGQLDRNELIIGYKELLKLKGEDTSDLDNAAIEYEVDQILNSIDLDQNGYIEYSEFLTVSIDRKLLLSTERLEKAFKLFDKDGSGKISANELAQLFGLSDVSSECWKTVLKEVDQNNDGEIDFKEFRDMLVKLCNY

Proline--tRNA ligase = molecular target: T3, Proline--tRNA ligase (Plasmodium falciparum (isolate 3D7), UniProt Q8I5R7); assay: MMV: ProRS recombinant Plasmodium falciparum Prolyl-tRNA-synthetase, assay with yeast tRNA, ATP, and proline and 3 uM MMV malaria box compound, assay read out with kinase glo as % inhibition.
T3 sequence (Q8I5R7 whole entry): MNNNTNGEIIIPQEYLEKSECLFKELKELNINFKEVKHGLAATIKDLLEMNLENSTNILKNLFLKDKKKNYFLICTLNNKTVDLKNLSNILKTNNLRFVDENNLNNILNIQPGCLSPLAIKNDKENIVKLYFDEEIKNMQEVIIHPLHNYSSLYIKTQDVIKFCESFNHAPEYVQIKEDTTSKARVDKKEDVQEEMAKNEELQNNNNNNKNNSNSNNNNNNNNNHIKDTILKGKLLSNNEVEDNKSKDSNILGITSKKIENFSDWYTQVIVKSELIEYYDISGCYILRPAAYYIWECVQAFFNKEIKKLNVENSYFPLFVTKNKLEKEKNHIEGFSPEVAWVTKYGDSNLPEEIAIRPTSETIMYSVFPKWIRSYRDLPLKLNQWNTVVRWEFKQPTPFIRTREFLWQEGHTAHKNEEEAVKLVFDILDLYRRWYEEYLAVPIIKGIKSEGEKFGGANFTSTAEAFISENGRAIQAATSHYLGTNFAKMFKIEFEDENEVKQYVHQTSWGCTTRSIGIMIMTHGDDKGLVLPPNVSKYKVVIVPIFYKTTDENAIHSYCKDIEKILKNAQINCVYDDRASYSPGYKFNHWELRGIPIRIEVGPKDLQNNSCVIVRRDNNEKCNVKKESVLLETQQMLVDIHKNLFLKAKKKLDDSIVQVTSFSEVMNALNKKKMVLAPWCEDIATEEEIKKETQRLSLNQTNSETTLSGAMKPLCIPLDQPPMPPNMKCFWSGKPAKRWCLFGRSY

[3] = molecular target: T4, Cdk-related protein kinase 6 (Plasmodium falciparum, UniProt O77239); assay: Final concentrations were 1.5 uM ATP, 5 mM MnCl2, and 15 ug/ml PK6 in a buffer of 100 mM Tris-HCl (pH 7.5). 50 ug/mL MBP was provided as the substrate; 10 uM staurosporine was used as a control inhibitor. Incubation time was 3 hours and 40 minutes.The catalytic activity of each kinase was considered proportional to ATP consumed, as determined from measurements of residual [ATP] with the luciferase-based reagent Kinase-Glo (Promega) following incubation. Luminescence (proportional to residual [ATP]) was measured on the plate readers FLx800 (BioTek Instruments, Winooski, VT, USA) and MicroBeta2.
T4 sequence (O77239 whole entry): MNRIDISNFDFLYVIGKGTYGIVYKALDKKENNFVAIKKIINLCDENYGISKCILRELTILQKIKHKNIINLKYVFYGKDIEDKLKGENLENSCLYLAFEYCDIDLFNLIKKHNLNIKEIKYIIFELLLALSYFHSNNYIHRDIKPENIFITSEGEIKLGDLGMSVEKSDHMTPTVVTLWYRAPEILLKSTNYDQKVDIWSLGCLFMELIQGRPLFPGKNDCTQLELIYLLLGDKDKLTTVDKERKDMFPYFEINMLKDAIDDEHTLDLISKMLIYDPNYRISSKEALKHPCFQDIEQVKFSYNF

Lysine--tRNA ligase = Lysine--tRNA ligase (Plasmodium falciparum (isolate 3D7), UniProt Q8IDJ8); assay: MMV: KRS recombinant Plasmodium falciparum Lysyl-tRNA-synthetase, assay with yeast tRNA, ATP, and lysine and 3 uM MMV malaria box compound, assay read out with kinase glo as % inhibition.
Chain of Lysine--tRNA ligase (Q8IDJ8 whole entry): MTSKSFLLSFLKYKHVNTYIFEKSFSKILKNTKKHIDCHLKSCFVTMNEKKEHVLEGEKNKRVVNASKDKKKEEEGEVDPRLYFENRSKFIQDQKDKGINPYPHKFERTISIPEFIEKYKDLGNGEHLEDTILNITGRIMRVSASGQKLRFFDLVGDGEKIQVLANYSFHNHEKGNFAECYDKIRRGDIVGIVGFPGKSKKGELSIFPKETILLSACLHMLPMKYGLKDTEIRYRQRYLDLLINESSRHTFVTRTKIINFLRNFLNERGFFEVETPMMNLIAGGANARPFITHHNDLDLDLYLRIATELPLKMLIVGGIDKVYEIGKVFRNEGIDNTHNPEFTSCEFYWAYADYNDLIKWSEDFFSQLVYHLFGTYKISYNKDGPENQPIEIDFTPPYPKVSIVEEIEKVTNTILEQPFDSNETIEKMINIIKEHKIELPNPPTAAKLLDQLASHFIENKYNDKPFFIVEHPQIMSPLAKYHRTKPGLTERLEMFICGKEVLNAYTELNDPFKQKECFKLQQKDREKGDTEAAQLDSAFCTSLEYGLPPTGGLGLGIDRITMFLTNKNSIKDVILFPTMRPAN

[4] = molecular target: T5, Mitogen-activated protein kinase (Plasmodium falciparum, UniProt Q25917); assay: Final concentrations were 1 uM ATP, 0.5 mM DTT, 1 mM MgCl2, 0.5 mg/mL BSA, and 10 ug/ml MAP2 in a buffer of 50 mM HEPES (pH 7.0). 0.5 mg/mL histone III-S served as the substrate (13); 100 uM AMP-PNP, an ATP analog, was used as a control inhibitor. Incubation time was 4 hours.
T5 sequence (Q25917 whole entry): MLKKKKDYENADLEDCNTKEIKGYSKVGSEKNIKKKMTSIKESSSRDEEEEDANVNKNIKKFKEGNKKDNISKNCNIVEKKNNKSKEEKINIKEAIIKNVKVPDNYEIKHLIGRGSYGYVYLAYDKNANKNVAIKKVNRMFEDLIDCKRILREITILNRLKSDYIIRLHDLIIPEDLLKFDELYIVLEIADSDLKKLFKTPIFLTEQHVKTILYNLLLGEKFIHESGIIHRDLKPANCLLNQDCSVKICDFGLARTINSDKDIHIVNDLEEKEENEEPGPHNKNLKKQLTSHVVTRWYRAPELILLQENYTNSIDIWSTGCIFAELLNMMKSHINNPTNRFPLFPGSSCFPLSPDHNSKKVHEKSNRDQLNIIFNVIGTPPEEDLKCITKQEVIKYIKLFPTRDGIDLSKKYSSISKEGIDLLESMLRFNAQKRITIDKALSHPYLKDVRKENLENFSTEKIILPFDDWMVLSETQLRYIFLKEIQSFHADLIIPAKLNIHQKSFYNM

[5] = molecular target: Calcium-dependent protein kinase 1 (Plasmodium falciparum, UniProt P62344); assay: MMV: CDPK1 Protein kinase inhibition assay using recombinant PfCDPK1, syntide 2 peptide substrate, ATP and KinaseGlo to measure % inhibition at 1 uM MMV box compound.
Chain of Calcium-dependent protein kinase 1 (P62344 whole entry): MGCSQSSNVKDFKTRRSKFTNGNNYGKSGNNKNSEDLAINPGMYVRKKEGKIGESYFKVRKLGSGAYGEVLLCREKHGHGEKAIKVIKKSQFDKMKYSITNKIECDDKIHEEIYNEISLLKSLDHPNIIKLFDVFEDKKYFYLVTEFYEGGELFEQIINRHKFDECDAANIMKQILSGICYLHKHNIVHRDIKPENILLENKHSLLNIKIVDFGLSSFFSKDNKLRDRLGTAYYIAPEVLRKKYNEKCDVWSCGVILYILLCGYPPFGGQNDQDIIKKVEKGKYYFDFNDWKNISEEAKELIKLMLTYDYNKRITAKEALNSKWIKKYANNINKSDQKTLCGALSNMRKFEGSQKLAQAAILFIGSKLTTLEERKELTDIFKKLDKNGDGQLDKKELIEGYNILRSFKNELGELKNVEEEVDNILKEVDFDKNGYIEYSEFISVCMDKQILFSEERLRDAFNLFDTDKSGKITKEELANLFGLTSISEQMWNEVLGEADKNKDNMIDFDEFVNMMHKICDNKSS

Structure (SMILES): CCOC(=O)c1ccc2[nH]c(-c3ccccc3)cc(=O)c2c1
- pIC50 [1]: < 6.00
- pIC50 [2]: < 6.00
- pIC50 (Proline--tRNA ligase): < 5.60
- pIC50 [3]: < 6.00
- pIC50 (Lysine--tRNA ligase): < 5.60
- pIC50 [4]: < 6.00
- pIC50 [5]: < 6.00

Structure (SMILES): CC1CC(C)CN(C(=O)c2ccc(Cl)cc2Cl)C1 (stereo not given)
- pIC50 [1]: < 6.00
- pIC50 [2]: < 6.00
- pIC50 (Proline--tRNA ligase): < 5.60
- pIC50 [3]: < 6.00
- pIC50 (Lysine--tRNA ligase): < 5.60
- pIC50 [4]: < 6.00
- pIC50 [5]: < 6.00

Structure (SMILES): Cc1cc(NCCN2CCCCC2)c2ccc3ccccc3c2n1
- pIC50 [1]: < 6.00
- pIC50 [2]: < 6.00
- pIC50 (Proline--tRNA ligase): < 5.60
- pIC50 [3]: < 6.00
- pIC50 (Lysine--tRNA ligase): < 5.60
- pIC50 [4]: < 6.00
- pIC50 [5]: < 6.00

Structure (SMILES): C=CCc1c(C)nc2ccccc2c1O
- pIC50 [1]: < 6.00
- pIC50 [2]: < 6.00
- pIC50 (Proline--tRNA ligase): < 5.60
- pIC50 [3]: < 6.00
- pIC50 (Lysine--tRNA ligase): < 5.60
- pIC50 [4]: < 6.00
- pIC50 [5]: < 6.00

Structure (SMILES): COc1ccc(C2c3ccc4ccccc4c3Oc3ncn(CCCN(C)C)c(=N)c32)cc1 (stereo not given)
- pIC50 [1]: < 6.00
- pIC50 [2]: < 6.00
- pIC50 (Proline--tRNA ligase): < 5.60
- pIC50 [3]: < 6.00
- pIC50 (Lysine--tRNA ligase): < 5.60
- pIC50 [4]: < 6.00
- pIC50 [5]: < 6.00

Structure (SMILES): Cc1c(C)n(Cc2ccc(F)cc2)c2ccc(C(=O)NCc3ccco3)cc12
- pIC50 [1]: < 6.00
- pIC50 [2]: < 6.00
- pIC50 (Proline--tRNA ligase): < 5.60
- pIC50 [3]: < 6.00
- pIC50 (Lysine--tRNA ligase): < 5.60
- pIC50 [4]: < 6.00
- pIC50 [5]: < 6.00

Structure (SMILES): O=C(Nc1cccc(-c2nc3ccccc3[nH]2)c1)c1cccc(NC(=O)c2ccco2)c1
- pIC50 [1]: < 6.00
- pIC50 [2]: < 6.00
- pIC50 (Proline--tRNA ligase): < 5.60
- pIC50 [3]: < 6.00
- pIC50 (Lysine--tRNA ligase): < 5.60
- pIC50 [4]: < 6.00
- pIC50 [5]: < 6.00

Structure (SMILES): CCCCCCc1cc2cc(-c3csc(C=Cc4ccccc4)n3)c(=O)oc2cc1O
- pIC50 [1]: < 6.00
- pIC50 [2]: < 6.00
- pIC50 (Proline--tRNA ligase): < 5.60
- pIC50 [3]: < 6.00
- pIC50 (Lysine--tRNA ligase): < 5.60
- pIC50 [4]: < 6.00
- pIC50 [5]: < 6.00

Structure (SMILES): CCOc1ccc(-n2cc(-c3ccccc3)c3c(SCc4cc(C)ccc4C)ncnc32)cc1
- pIC50 [1]: < 6.00
- pIC50 [2]: < 6.00
- pIC50 (Proline--tRNA ligase): < 5.60
- pIC50 [3]: < 6.00
- pIC50 (Lysine--tRNA ligase): < 5.60
- pIC50 [4]: < 6.00
- pIC50 [5]: < 6.00

Structure (SMILES): Oc1ccccc1CN1CCN(C(c2ccccc2)c2ccccc2)CC1
- pIC50 [1]: < 6.00
- pIC50 [2]: < 6.00
- pIC50 (Proline--tRNA ligase): < 5.60
- pIC50 [3]: < 6.00
- pIC50 (Lysine--tRNA ligase): < 5.60
- pIC50 [4]: < 6.00
- pIC50 [5]: < 6.00

Structure (SMILES): COc1cccc(C(=O)NC(c2ccc(C)cc2)c2cc(Cl)c3cccnc3c2O)c1 (stereo not given)
- pIC50 [1]: < 6.00
- pIC50 [2]: < 6.00
- pIC50 (Proline--tRNA ligase): < 5.60
- pIC50 [3]: < 6.00
- pIC50 (Lysine--tRNA ligase): < 5.60
- pIC50 [4]: < 6.00
- pIC50 [5]: < 6.00

Structure (SMILES): CCOC(=O)c1c[nH]c2c(CC)cccc2c1=O
- pIC50 [1]: < 6.00
- pIC50 [2]: < 6.00
- pIC50 (Proline--tRNA ligase): < 5.60
- pIC50 [3]: < 6.00
- pIC50 (Lysine--tRNA ligase): < 5.60
- pIC50 [4]: < 6.00
- pIC50 [5]: < 6.00

Structure (SMILES): O=C1CC(O)(C(F)(F)C(F)(F)F)Oc2ccccc21 (stereo not given)
- pIC50 [1]: < 6.00
- pIC50 [2]: < 6.00
- pIC50 (Proline--tRNA ligase): < 5.60
- pIC50 [3]: < 6.00
- pIC50 (Lysine--tRNA ligase): < 5.60
- pIC50 [4]: < 6.00
- pIC50 [5]: < 6.00

Structure (SMILES): COc1ccc(-c2cc3c(nn2)-c2ccccc2C3=O)cc1
- pIC50 [1]: < 6.00
- pIC50 [2]: < 6.00
- pIC50 (Proline--tRNA ligase): < 5.60
- pIC50 [3]: < 6.00
- pIC50 (Lysine--tRNA ligase): < 5.60
- pIC50 [4]: < 6.00
- pIC50 [5]: < 6.00

Structure (SMILES): Brc1ccc(Nc2nc3ccccc3nc2Nc2ccc(Br)cc2)cc1
- pIC50 [1]: < 6.00
- pIC50 [2]: < 6.00
- pIC50 (Proline--tRNA ligase): < 5.60
- pIC50 [3]: < 6.00
- pIC50 (Lysine--tRNA ligase): < 5.60
- pIC50 [4]: < 6.00
- pIC50 [5]: < 6.00
